According to patent US11628228B2, “99mTc-labeled isonitrile-containing glucose derivative and preparation method and use thereof” (Beijing Shihong Pharmaceutical Research Center, priority 2017, dated 2023):

Legend:
S180-bearing mice = assay: Bio-distribution in tumor-bearing mice; format: in vivo; details: for Blood uptake / Bone uptake / Heart uptake / Kidney uptake / Liver uptake / Lung uptake / Muscle uptake / Small intestine uptake / Spleen uptake / Stomach uptake / Tumor uptake / Tumor/blood ratio / Tumor/muscle ratio: S180-bearing mice, tail vein; for Tumor/liver ratio: tumor-bearing mice, 0.5 hour after injection
Procedure: The labeled solution (0.1 mL, 74 KBq) is injected into mice through the tail vein, and the injection time is recorded. Then the mice were killed by cervical dislocation at different time phases (30 minutes, 60 minutes, and 120 minutes), five mice for each time phase, and the organs of interest such as heart, liver, lung, kidney, spleen, stomach, muscle, blood and tumor are taken out after dissection, and measured with a γ-counter for the radioactive count of each organ. The uptake value of each organ is obtained by calculation based on the mass of the organ (with % ID/g as the unit).

[1] = Determination of the lipid-water partition coefficient (n-octanol/PBS); format: physicochemical
Procedure: One hundred μL of the labeled substance solution (50 μCi) diluted with normal saline is placed into a 2 mL centrifuge tube, and then 800 μL of n-octanol and 700 μL of PBS are added to the centrifuge tube, which is subsequently covered with a cap. The centrifuge tube is vortexed for 3 minutes (2500 r/minute), allowed to stand until the solution is layered, and centrifuged in a centrifuge for 3 minutes (3000 r/minute). Three samples of the upper organic phase and three samples of the lower aqueous phase are taken, each 100 μL, and detected in a γ-counter for the radioactive counts of the organic and aqueous phases, respectively.

tumor-bearing mice = assay: SPECT imaging in tumor-bearing mice; format: in vivo; details: 0.2 mL, 700 μCi tail vein, imaging 1 hour later
Procedure: The prepared [^99mTc-(CN3DG)6]^+ or [^99mTc-(CN5DG)6]^+ (0.2 mL, 700 μCi) is injected into tumor-bearing mice through tail vein, and SPECT imaging is performed 1 hour later.

O=C(CC[N+]#[C][99Tc-5]([C]#[N+]CCC(=O)NC1C(O)OC(CO)C(O)C1O)([C]#[N+]CCC(=O)NC1C(O)OC(CO)C(O)C1O)([C]#[N+]CCC(=O)NC1C(O)OC(CO)C(O)C1O)([C]#[N+]CCC(=O)NC1C(O)OC(CO)C(O)C1O)[C]#[N+]CCC(=O)NC1C(O)OC(CO)C(O)C1O)NC1C(O)OC(CO)C(O)C1O (stereo not shown) [[^99mTc-(CN2DG)6]^+]
Blood uptake (S180-bearing mice; 30 min): 0.94 ± 0.18 % ID/g | Bone uptake (S180-bearing mice; 30 min): 0.32 ± 0.07 % ID/g | Heart uptake (S180-bearing mice; 30 min): 0.34 ± 0.06 % ID/g | Kidney uptake (S180-bearing mice; 30 min): 3.11 ± 1.04 % ID/g | Liver uptake (S180-bearing mice; 30 min): 0.35 ± 0.06 % ID/g | Lung uptake (S180-bearing mice; 30 min): 0.94 ± 0.18 % ID/g | Muscle uptake (S180-bearing mice; 30 min): 0.27 ± 0.07 % ID/g | Small intestine uptake (S180-bearing mice; 30 min): 0.44 ± 0.16 % ID/g | Spleen uptake (S180-bearing mice; 30 min): 0.31 ± 0.09 % ID/g | Stomach uptake (S180-bearing mice; 30 min): 0.38 ± 0.15 % ID/g | Tumor uptake (S180-bearing mice; 30 min): 1.09 ± 0.23 % ID/g | Tumor/blood ratio (S180-bearing mice; 30 min): 1.16 | Tumor/muscle ratio (S180-bearing mice; 30 min): 4.04 | Blood uptake (S180-bearing mice; 60 min): 0.20 ± 0.05 % ID/g | Bone uptake (S180-bearing mice; 60 min): 0.10 ± 0.02 % ID/g | Heart uptake (S180-bearing mice; 60 min): 0.12 ± 0.02 % ID/g | Kidney uptake (S180-bearing mice; 60 min): 1.17 ± 0.27 % ID/g | Liver uptake (S180-bearing mice; 60 min): 0.18 ± 0.02 % ID/g | Lung uptake (S180-bearing mice; 60 min): 0.26 ± 0.06 % ID/g | Muscle uptake (S180-bearing mice; 60 min): 0.08 ± 0.00 % ID/g | Small intestine uptake (S180-bearing mice; 60 min): 0.19 ± 0.03 % ID/g | Spleen uptake (S180-bearing mice; 60 min): 0.13 ± 0.02 % ID/g | Stomach uptake (S180-bearing mice; 60 min): 0.19 ± 0.07 % ID/g | Tumor uptake (S180-bearing mice; 60 min): 0.50 ± 0.07 % ID/g | Tumor/blood ratio (S180-bearing mice; 60 min): 2.78 | Tumor/muscle ratio (S180-bearing mice; 60 min): 6.25 | Blood uptake (S180-bearing mice; 120 min): 0.01 ± 0.00 % ID/g | Bone uptake (S180-bearing mice; 120 min): 0.05 ± 0.02 % ID/g | Heart uptake (S180-bearing mice; 120 min): 0.05 ± 0.02 % ID/g | Kidney uptake (S180-bearing mice; 120 min): 0.68 ± 0.11 % ID/g | Liver uptake (S180-bearing mice; 120 min): 0.09 ± 0.01 % ID/g | Lung uptake (S180-bearing mice; 120 min): 0.09 ± 0.04 % ID/g | Muscle uptake (S180-bearing mice; 120 min): 0.04 ± 0.01 % ID/g | Small intestine uptake (S180-bearing mice; 120 min): 0.12 ± 0.02 % ID/g | Spleen uptake (S180-bearing mice; 120 min): 0.07 ± 0.01 % ID/g | Stomach uptake (S180-bearing mice; 120 min): 0.15 ± 0.06 % ID/g | Tumor uptake (S180-bearing mice; 120 min): 0.25 ± 0.05 % ID/g | Tumor/blood ratio (S180-bearing mice; 120 min): 25.00 | Tumor/muscle ratio (S180-bearing mice; 120 min): 6.25 | Tumor/liver ratio (S180-bearing mice): 3.11 | Log P (lipid-water partition coefficient) [1]: −4.26±0.12

O=C(CCC[N+]#[C][99Tc-5]([C]#[N+]CCCC(=O)NC1C(O)OC(CO)C(O)C1O)([C]#[N+]CCCC(=O)NC1C(O)OC(CO)C(O)C1O)([C]#[N+]CCCC(=O)NC1C(O)OC(CO)C(O)C1O)([C]#[N+]CCCC(=O)NC1C(O)OC(CO)C(O)C1O)[C]#[N+]CCCC(=O)NC1C(O)OC(CO)C(O)C1O)NC1C(O)OC(CO)C(O)C1O (stereo not shown) [[^99mTc-(CN3DG)6]^+]
Blood uptake (S180-bearing mice; 30 min): 0.78 ± 0.16 % ID/g | Bone uptake (S180-bearing mice; 30 min): 0.27 ± 0.05 % ID/g | Heart uptake (S180-bearing mice; 30 min): 0.40 ± 0.07 % ID/g | Kidney uptake (S180-bearing mice; 30 min): 2.17 ± 0.43 % ID/g | Liver uptake (S180-bearing mice; 30 min): 0.39 ± 0.12 % ID/g | Lung uptake (S180-bearing mice; 30 min): 0.78 ± 0.12 % ID/g | Muscle uptake (S180-bearing mice; 30 min): 0.37 ± 0.08 % ID/g | Small intestine uptake (S180-bearing mice; 30 min): 0.44 ± 0.08 % ID/g | Spleen uptake (S180-bearing mice; 30 min): 0.28 ± 0.05 % ID/g | Stomach uptake (S180-bearing mice; 30 min): 0.64 ± 0.25 % ID/g | Tumor uptake (S180-bearing mice; 30 min): 1.49 ± 0.08 % ID/g | Tumor/blood ratio (S180-bearing mice; 30 min): 1.91 | Tumor/muscle ratio (S180-bearing mice; 30 min): 4.03 | Blood uptake (S180-bearing mice; 60 min): 0.12 ± 0.03 % ID/g | Bone uptake (S180-bearing mice; 60 min): 0.15 ± 0.02 % ID/g | Heart uptake (S180-bearing mice; 60 min): 0.22 ± 0.04 % ID/g | Kidney uptake (S180-bearing mice; 60 min): 1.05 ± 0.21 % ID/g | Liver uptake (S180-bearing mice; 60 min): 0.23 ± 0.03 % ID/g | Lung uptake (S180-bearing mice; 60 min): 0.23 ± 0.04 % ID/g | Muscle uptake (S180-bearing mice; 60 min): 0.17 ± 0.07 % ID/g | Small intestine uptake (S180-bearing mice; 60 min): 0.21 ± 0.14 % ID/g | Spleen uptake (S180-bearing mice; 60 min): 0.15 ± 0.03 % ID/g | Stomach uptake (S180-bearing mice; 60 min): 0.25 ± 0.07 % ID/g | Tumor uptake (S180-bearing mice; 60 min): 1.00 ± 0.17 % ID/g | Tumor/blood ratio (S180-bearing mice; 60 min): 8.33 | Tumor/muscle ratio (S180-bearing mice; 60 min): 5.88 | Blood uptake (S180-bearing mice; 120 min): 0.04 ± 0.02 % ID/g | Bone uptake (S180-bearing mice; 120 min): 0.13 ± 0.04 % ID/g | Heart uptake (S180-bearing mice; 120 min): 0.22 ± 0.05 % ID/g | Kidney uptake (S180-bearing mice; 120 min): 1.23 ± 0.26 % ID/g | Liver uptake (S180-bearing mice; 120 min): 0.28 ± 0.04 % ID/g | Lung uptake (S180-bearing mice; 120 min): 0.17 ± 0.05 % ID/g | Muscle uptake (S180-bearing mice; 120 min): 0.17 ± 0.05 % ID/g | Small intestine uptake (S180-bearing mice; 120 min): 0.14 ± 0.06 % ID/g | Spleen uptake (S180-bearing mice; 120 min): 0.17 ± 0.06 % ID/g | Stomach uptake (S180-bearing mice; 120 min): 0.31 ± 0.06 % ID/g | Tumor uptake (S180-bearing mice; 120 min): 0.68 ± 0.23 % ID/g | Tumor/blood ratio (S180-bearing mice; 120 min): 17.00 | Tumor/muscle ratio (S180-bearing mice; 120 min): 4.00 | Tumor/liver ratio (S180-bearing mice): 3.82 | SPECT imaging: aggregation at the tumor sites (tumor-bearing mice): evident aggregation at the tumor sites | SPECT imaging: concentration in kidney (tumor-bearing mice): relatively high concentration in kidney | SPECT imaging: uptake in other organs (tumor-bearing mice): relatively low | Log P (lipid-water partition coefficient) [1]: −4.01±0.17
